How the values were obtained:
[1] = Cytotoxicity against HEK293 cells assessed as reduction in cell viability incubated for 48 hrs by MTT assay; type: toxicity, cell-based; settings: human
[2] = Cytotoxicity against human L02 cells assessed as reduction in cell viability incubated for 48 hrs by MTT assay; type: toxicity, cell-based
[3] = Cytotoxicity against human SH-SY5Y cells assessed as reduction in cell viability incubated for 48 hrs by MTT assay; type: toxicity, cell-based
[4] = tested on: SH-SY5Y; assay: Neuroprotective activity against MPP+-induced human SH-SY5Y cells assessed as reduction in cell death at 0.08 to 5 uM measured after 48 hrs by MTT assay relative to control; type: functional; set-up: scale not given: the % may be the effect or the level left; settings: dose 0.08-5 µM
[5] = tested on: SH-SY5Y; assay: Neuroprotective activity against MPP+-induced human SH-SY5Y cells assessed as reduction in cell death at 5 uM measured after 48 hrs by MTT assay relative to control; type: functional; set-up: scale not given: the % may be the effect or the level left

Structure (SMILES) | IC50 at 48 h [1] [µM] | IC50 at 48 h [2] [µM] | IC50 at 48 h [3] [µM] | Activity [4] [%] | Activity [5] [%]
Cc1ccc(C(=O)Nc2ccc(CN3CCN(C)CC3)c(C(F)(F)F)c2)cc1Nc1cccc2c1C(=O)C(=O)N2C | 16.6 | > 80 | 23.6 |  | 
Cc1ccc(C(=O)Nc2cc(-c3cnn(C)c3)cc(C(F)(F)F)c2)cc1Nc1cccc2c1C(=O)C(=O)N2C | > 80 | > 80 | > 80 |  | 
Cc1cn(-c2cc(NC(=O)c3ccc(C)c(Nc4nccc(-c5cccnc5)n4)c3)cc(C(F)(F)F)c2)cn1 [NILOTINIB] | 8.2 | 37 |  | 6.9 | 20

— ChEMBL document CHEMBL5329216, “Discovery of conformationally constrained c-Abl inhibitors with potential neuroprotective effects against Parkinson's disease” (Bioorg Med Chem, 2023)
